Measurements from the NIST ThermoML archive (doi:10.1016/j.fluid.2009.08.011).

Test: cn = amount concentration of the nth substance listed, in mol/dm3
Settings: 101 kPa, Liquid, Alternating current cell with electrodes

CCCCn1cc[n+](C)c1.[Br-] [1-butyl-3-methylimidazolium bromide] + O
Settings | molar conductivity [S·m2/mol]
298.15 K, c1 = 0.0004937 | 0.0131
298.15 K, c1 = 0.0008655 | 0.0131
298.15 K, c1 = 0.001621 | 0.013
298.15 K, c1 = 0.002706 | 0.0129
298.15 K, c1 = 0.003761 | 0.0128
298.15 K, c1 = 0.005815 | 0.0126
298.15 K, c1 = 0.008089 | 0.0125
298.15 K, c1 = 0.01047 | 0.0123
298.15 K, c1 = 0.01259 | 0.0122
308.15 K, c1 = 0.0004882 | 0.0137
308.15 K, c1 = 0.00104 | 0.0135
308.15 K, c1 = 0.001567 | 0.0135
308.15 K, c1 = 0.001953 | 0.0134
308.15 K, c1 = 0.002955 | 0.0132
308.15 K, c1 = 0.00388 | 0.0131
308.15 K, c1 = 0.004882 | 0.0129
308.15 K, c1 = 0.006552 | 0.0128
308.15 K, c1 = 0.008273 | 0.0127
308.15 K, c1 = 0.009904 | 0.0125
308.15 K, c1 = 0.01206 | 0.0124
318.15 K, c1 = 0.000457 | 0.015
318.15 K, c1 = 0.001096 | 0.0148
318.15 K, c1 = 0.001486 | 0.0147
318.15 K, c1 = 0.002393 | 0.0143
318.15 K, c1 = 0.003324 | 0.014
318.15 K, c1 = 0.004652 | 0.0138
318.15 K, c1 = 0.006235 | 0.0134
318.15 K, c1 = 0.008073 | 0.0131
318.15 K, c1 = 0.009991 | 0.0129
318.15 K, c1 = 0.012 | 0.0126
318.15 K, c1 = 0.0138 | 0.0124
328.15 K, c1 = 0.00043 | 0.0158
328.15 K, c1 = 0.000847 | 0.0157
328.15 K, c1 = 0.001805 | 0.0154
328.15 K, c1 = 0.002719 | 0.0152
328.15 K, c1 = 0.003628 | 0.015
328.15 K, c1 = 0.005125 | 0.0147
328.15 K, c1 = 0.006801 | 0.0144
328.15 K, c1 = 0.008998 | 0.014
328.15 K, c1 = 0.01111 | 0.0136
328.15 K, c1 = 0.01358 | 0.0132

CCCCn1cc[n+](C)c1.[Cl-] [1-butyl-3-methylimidazolium chloride] + O
Settings | molar conductivity [S·m2/mol]
298.15 K, c1 = 0.0004271 | 0.0109
298.15 K, c1 = 0.0009378 | 0.0108
298.15 K, c1 = 0.001755 | 0.0107
298.15 K, c1 = 0.002553 | 0.0106
298.15 K, c1 = 0.002999 | 0.0106
298.15 K, c1 = 0.003835 | 0.0105
298.15 K, c1 = 0.004438 | 0.0104
298.15 K, c1 = 0.004986 | 0.0104
298.15 K, c1 = 0.005608 | 0.0103
298.15 K, c1 = 0.006388 | 0.0103
298.15 K, c1 = 0.007112 | 0.0102
298.15 K, c1 = 0.008217 | 0.0101
298.15 K, c1 = 0.008932 | 0.0101
298.15 K, c1 = 0.009777 | 0.00999
298.15 K, c1 = 0.01041 | 0.00996
298.15 K, c1 = 0.01119 | 0.00983
298.15 K, c1 = 0.01216 | 0.00978
298.15 K, c1 = 0.01304 | 0.00968
298.15 K, c1 = 0.01389 | 0.00962
308.15 K, c1 = 0.0006735 | 0.0111
308.15 K, c1 = 0.001508 | 0.011
308.15 K, c1 = 0.002241 | 0.011
308.15 K, c1 = 0.002432 | 0.0109
308.15 K, c1 = 0.003588 | 0.0108
308.15 K, c1 = 0.004875 | 0.0106
308.15 K, c1 = 0.006007 | 0.0104
308.15 K, c1 = 0.008219 | 0.0103
308.15 K, c1 = 0.01013 | 0.0103
308.15 K, c1 = 0.01259 | 0.0102
308.15 K, c1 = 0.01457 | 0.0101
308.15 K, c1 = 0.01708 | 0.01
308.15 K, c1 = 0.01958 | 0.01
308.15 K, c1 = 0.02199 | 0.00998
318.15 K, c1 = 0.000681 | 0.0119
318.15 K, c1 = 0.001635 | 0.0117
318.15 K, c1 = 0.002388 | 0.0113
318.15 K, c1 = 0.003429 | 0.0111
318.15 K, c1 = 0.004391 | 0.0109
318.15 K, c1 = 0.006618 | 0.0107
318.15 K, c1 = 0.008725 | 0.0105
318.15 K, c1 = 0.01078 | 0.0103
318.15 K, c1 = 0.01367 | 0.0101
318.15 K, c1 = 0.01671 | 0.00997
318.15 K, c1 = 0.02016 | 0.00981
318.15 K, c1 = 0.02295 | 0.0097
318.15 K, c1 = 0.02493 | 0.00962
328.15 K, c1 = 0.0006908 | 0.0125
328.15 K, c1 = 0.0007995 | 0.0124
328.15 K, c1 = 0.001327 | 0.0123
328.15 K, c1 = 0.002041 | 0.0121
328.15 K, c1 = 0.002693 | 0.012
328.15 K, c1 = 0.004479 | 0.0115
328.15 K, c1 = 0.006054 | 0.0113
328.15 K, c1 = 0.007413 | 0.0111
328.15 K, c1 = 0.008786 | 0.0109
328.15 K, c1 = 0.01028 | 0.0108
328.15 K, c1 = 0.01229 | 0.0106
328.15 K, c1 = 0.01504 | 0.0104
328.15 K, c1 = 0.01749 | 0.0102
